Reference: patent publication US20210169882A1, “PHARMACEUTICAL COMPOSITION FOR PROTECTING OR MITIGATING RADIATION DAMAGE, AND FOR PREVENTING OR TREATING PULMONARY FIBROSIS” (KOREA INSTITUTE OF RADIOLOGICAL & MEDICAL SCIENCES, priority 2017, published 2021)

Experiments:
[1] = test system: lung tissue of a mouse animal model irradiated with 90 Gy; assay: Inhibition test of GSK3 inhibitor on tissue damage caused by radiation (H&E staining); type: in vivo; details: 30 mg/kg intraperitoneally one hour before 90 Gy chest irradiation, two weeks after irradiation, compared to the non-treatment group (IR)
Procedure: The tissue of a mouse was fixed with 10% neutral formalin for one day, and a paraffin section was made. In order to remove the paraffin around the tissue, the tissue was allowed to react with a xylene solution and 95%, 90%, and 70% ethanol solutions in sequential order for 5 minutes each, and then immersed in a hematoxylin solution for 1 minute to stain the nuclei and then washed under running water for 10 minutes. Thereafter, the cytoplasm was stained by immersing the tissue in an eosin solution for 30 seconds. Thereafter, the tissue was immersed in 50%, 70%, 90%, and 95% ethanol solutions, and a xylene solution in sequential order, followed by dropping one drop of a mounting solution. Then, the tissue was covered with a cover slide and observed under a microscope (Carl Zeiss Vision). The lung tissue of a mouse animal model, in which the chest of the mouse was irradiated in a size of 3 mm with an intensity of 90 Gy, was fixed with 10% formalin, and a paraffin section was made. Thereafter, tissue inflammatory response and fibrosis were identified by using a hematoxylin and eosin staining method. […] Two weeks after the irradiation, the inflammatory response and fibrosis of the tissue damage site were identified by using a hamatoxylin and eosin staining method.

[2] = test system: vascular wall in the lung tissue of a mouse animal model irradiated with 90 Gy; assay: Inhibition test of GSK3 inhibitor on in vivo vascular damage caused by radiation (vascular wall thickness, H&E staining); details: 30 mg/kg intraperitoneally one hour before 90 Gy chest irradiation, two weeks after irradiation, compared to the non-treatment group (IR)
Procedure: (§1) The tissue of a mouse was fixed with 10% neutral formalin for one day, and a paraffin section was made. In order to remove the paraffin around the tissue, the tissue was allowed to react with a xylene solution and 95%, 90%, and 70% ethanol solutions in sequential order for 5 minutes each, and then immersed in a hematoxylin solution for 1 minute to stain the nuclei and then washed under running water for 10 minutes. Thereafter, the cytoplasm was stained by immersing the tissue in an eosin solution for 30 seconds. Thereafter, the tissue was immersed in 50%, 70%, 90%, and 95% ethanol solutions, and a xylene solution in sequential order, followed by dropping one drop of a mounting solution. Then, the tissue was covered with a cover slide and observed under a microscope (Carl Zeiss Vision).
The lung tissue of a mouse animal model, in which the chest of the mouse was irradiated in a size of 3 mm with an intensity of 90 Gy, was fixed with 10% formalin, and a paraffin section was made. Thereafter, the tissue was stained with hematoxylin and eosin. Upon observing the tissue with this staining method, the cell nucleus is observed in blue and the cytoplasm in pink. One hour before irradiating the mouse animal model, 30 mg/kg of […] or CHIR-98014 was administered intraperitoneally. […]

[3] = test system: pulmonary vascular endothelial cells of irradiated C57BL/6 mouse lung; assay: Pulmonary fibrosis inhibition test in experimental animal model (collagen, trichrome staining); type: in vivo; details: 30 mg/kg intraperitoneally one hour before 90 Gy lung irradiation, compared to the irradiation group (IR)
Procedure: The tissue of a mouse was fixed with 10% neutral formalin for one day, and a paraffin section was made. In order to remove paraffin around the tissue, the tissue was allowed to react with a xylene solution and 95%, 90%, and 70% ethanol solutions in sequential order for 5 minutes each. For the antigen activation of the tissue, the tissue was immersed in a 0.1 M citric acid solution (pH 6.0) and then boiled for 20 minutes. Subsequently, the tissue was allowed to react with a Bouin's solution for 1 minute, Weigert's hematoxylin for 10 minutes, phoshotunstic/phosphomolydic acid for 10 minutes, aniline blue for 5 minutes, and 1% acetic acid for 1 minute in sequential order. Thereafter, a dehydration process was performed, and then the tissue was covered with a cover glass and observed under a microscope (Carl Zeiss Vision).
In order to observe whether a phenomenon of pulmonary fibrosis of vascular endothelial cells is shown as the symptom of pulmonary fibrosis occurred after radiotherapy, the site of the lung of a C57BL/6 mouse was topically irradiated with an intensity of 90 Gy. After excising the lung from the mouse, the cross-section of the aorta of the lung tissue was stained by a trichrome staining method in order to identify collagen which is a protein shown upon fibrosis of the pulmonary vascular endothelial cells.

γH2AX = assay: Inhibition test of GSK3 inhibitor on DNA damage caused by radiation (γH2AX immunostaining); type: in vivo, mouse; details: 30 mg/kg one hour prior to 90 Gy lung irradiation, compared to the non-treatment group (IR)
Procedure: The tissue of a mouse was fixed with 10% neutral formalin for one day, and a paraffin section was made. In order to remove paraffin around the tissue, the tissue was immersed in a xylene solution and 100%, 95%, 90%, and 70% ethanol solutions in sequential order. For the antigen activation of the tissue, the tissue was immersed in a 0.1 M citric acid solution (pH 6.0) and boiled for 30 minutes, and then reacted with 3% hydrogen peroxide for 15 minutes. The tissue was allowed to react with γH2AX (abcam), which was diluted in 1:200 ratio in a PBS solution (including phosphate based saline buffer and 0.1% triton x-100), at 4° C. for 16 hours. After washing the tissue with PBS, a secondary antibody conjugated with biotin was diluted in 1:200 ratio and reacted with the tissue at room temperature for 30 minutes. After reacting the tissue with ABC (Avidin biotin complex) at room temperature for 30 minutes and color-developing 3,3′-DAB (3,3′-diaminobenzidine), the tissue was counterstained with hematoxylin. Subsequently, the tissue was immersed in 50%, 70%, 90%, 95%, and 100% ethanol solutions and a xylene solution in sequential order, followed by dropping one drop of a mounting solution. Then, the tissue was covered with a cover slide and observed under a microscope (Carl Zeiss Vision). […]

[4] = test system: lung tissue of bleomycin-injected mouse; assay: Inhibition test of GSK3 inhibitor on tissue damage caused by bleomycin (bleomycin-induced pulmonary fibrosis model); type: in vivo; details: 30 mg/kg intraperitoneally one hour before 1.25 U/kg bleomycin into the airway; three weeks after injection; H&E and trichrome staining; compared to the non-treatment group
Procedure: as §1
The tissue of a mouse was fixed with 10% neutral formalin for one day, and a paraffin section was made. In order to remove paraffin around the tissue, the tissue was allowed to react with a xylene solution and 95%, 90%, and 70% ethanol solutions in sequential order for 5 minutes each. For the antigen activation of the tissue, the tissue was immersed in a 0.1 M citric acid solution (pH 6.0) and then boiled for 20 minutes. […]

SMILES	infiltration of the inflammatory cells and the fibrotic matrix around blood vessels [1]	thickness of the vascular wall [2]	blue sites of collagen (protein associated with pulmonary fibrosis) in inner wall of the aorta of the lung [3]	expression of γH2AX according to the DNA damage (γH2AX)	pathological characteristics (infiltration of inflammatory cells, deposition of collagen, fibrous nodules, interstitial thickening) [4]
Nc1nc(NCCNc2ncc(-c3ncc[nH]3)c(-c3ccc(Cl)cc3Cl)n2)ccc1[N+](=O)[O-] [CHIR-98014, N-6-[2-[[4-(2,4-dichlorophenyl)-5-(1H-imidazol-2-yl)-2-pyrimidinyl]amino]ethyl]-3-nitro-2,6-pyridinediamine]	remarkably reduced	remarkably reduced	remarkably reduced	remarkably reduced	remarkably inhibited
Cc1c[nH]c(-c2cnc(NCCNc3ccc(C#N)cn3)nc2-c2ccc(Cl)cc2Cl)n1 [CHIR-99021, 6-[[2-[[4-(2,4-dichlorophenyl)-5-(5-methyl-1H-imidazol-2-yl)-2-pyrimidinyl]amino]ethyl]amino]-3-pyridinecarbonitrile]	remarkably reduced	remarkably reduced	remarkably reduced	remarkably reduced	remarkably inhibited
